Assay results reported in patent US8158656B2, “2-indolinone derivatives as multi-target protein kinase inhibitors and histone deacetylase inhibitors” (Shenzhen Chipscreen Biosciences Ltd., priority 2008, dated 2012).

Columns and labels:
[1] = test system: Mo7e cells (SCF dependent); assay: c-Kit ligand (SCF) dependent cell proliferation; format: cell-based; conditions: SCF 50 ng/ml, 72 hours, MTS
Procedure: SCF dependent cell proliferation:
Mo7e cells (SCF dependent) were plated into 96-well plates at 15000 per well and incubated in 1640 medium with 10% FBS and SCF (50 ng/ml) for 24 hours. Compounds were added and incubated for 72 hours at 37° C. in CO2 incubator. The effects on proliferation were determined by addition of MTS reagent (Promega) according to the instruction, incubation for 2 hours at 37° C. in CO2 incubator, and record the absorbance at 490 nm using an ELISA plate reader.

VEGFR2 = VEGFR2 (Homo sapiens, UniProt P35968); assay: VEGF receptor kinase ELISA bioassay; format: biochemical; conditions: ELISA kinase assay, 200 μM ATP
Sequence of VEGFR2 (P35968 807-1356): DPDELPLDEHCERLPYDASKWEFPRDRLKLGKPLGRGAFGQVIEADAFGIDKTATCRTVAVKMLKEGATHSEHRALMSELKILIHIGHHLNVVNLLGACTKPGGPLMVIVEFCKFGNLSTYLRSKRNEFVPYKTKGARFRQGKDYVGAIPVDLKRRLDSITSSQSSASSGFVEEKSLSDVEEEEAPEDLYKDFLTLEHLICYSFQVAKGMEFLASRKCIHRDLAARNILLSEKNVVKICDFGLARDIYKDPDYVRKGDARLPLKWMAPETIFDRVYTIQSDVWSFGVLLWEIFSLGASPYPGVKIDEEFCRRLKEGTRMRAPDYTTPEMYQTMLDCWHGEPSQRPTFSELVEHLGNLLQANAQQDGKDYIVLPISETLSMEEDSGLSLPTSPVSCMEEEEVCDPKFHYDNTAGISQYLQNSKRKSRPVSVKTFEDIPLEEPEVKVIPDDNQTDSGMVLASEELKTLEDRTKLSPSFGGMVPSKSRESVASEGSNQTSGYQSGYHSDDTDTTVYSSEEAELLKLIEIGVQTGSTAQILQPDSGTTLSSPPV

total HDAC enzyme = assay: Total HDAC enzyme activity, HDAC Fluorimetric Assay (HeLa extract); format: biochemical, human
Procedure: Measurement of in vitro inhibition of total HDAC enzyme activity:
The in vitro inhibition of total HDAC enzyme was determined by HDAC Fluorimetric Assay/Drug Discovery Kit (BIOMOL) according to manufacture's instruction. • 1. Add Assay buffer, diluted trichostatin A or test inhibitor to appropriate wells of the microtiter plate. Following table lists examples of various assay types and the additions required for each test.
• 2. Add diluted HeLa extract or other HDAC sample to all wells except those that are to be “No Enzyme Controls” (Blank). • 3. Allow diluted Fluor de Lys™ Substrate and the samples in the microtiter plate to equilibrate to assay temperature (25° C.). • 4. Initiate HDAC reactions by adding diluted substrate (25 μl) to each well and mixing thoroughly. • 5. Allow HDAC reactions to proceed for desired length of time and then stop them by addition of Fluor de Lys™ Developer (50 μl). Incubate plate at room temperature (25° C.) for 10-15 min. • 6. Read samples in a microtiter-plate reading fluorimeter capable of excitation at a wavelength in the range 350-380 nm and detection of emitted light in the range 440-460 nm. Measurement of in vivo inhibition of HDAC subtype activity: […]

HDAC7 = target: T1, HDAC7 (Homo sapiens, UniProt Q8WUI4); assay: Nur77 reporter assay in HeLa cells; format: cell-based; conditions: for EC50: 24 hours; for HDAC7 (Nur77 reporter assay) % Max Resp of CS055 at 3 μM: relative to CS055 at 3 μM
T1 construct: endogenous in cells; host or cells: HeLa
T1 sequence (Q8WUI4 1-952): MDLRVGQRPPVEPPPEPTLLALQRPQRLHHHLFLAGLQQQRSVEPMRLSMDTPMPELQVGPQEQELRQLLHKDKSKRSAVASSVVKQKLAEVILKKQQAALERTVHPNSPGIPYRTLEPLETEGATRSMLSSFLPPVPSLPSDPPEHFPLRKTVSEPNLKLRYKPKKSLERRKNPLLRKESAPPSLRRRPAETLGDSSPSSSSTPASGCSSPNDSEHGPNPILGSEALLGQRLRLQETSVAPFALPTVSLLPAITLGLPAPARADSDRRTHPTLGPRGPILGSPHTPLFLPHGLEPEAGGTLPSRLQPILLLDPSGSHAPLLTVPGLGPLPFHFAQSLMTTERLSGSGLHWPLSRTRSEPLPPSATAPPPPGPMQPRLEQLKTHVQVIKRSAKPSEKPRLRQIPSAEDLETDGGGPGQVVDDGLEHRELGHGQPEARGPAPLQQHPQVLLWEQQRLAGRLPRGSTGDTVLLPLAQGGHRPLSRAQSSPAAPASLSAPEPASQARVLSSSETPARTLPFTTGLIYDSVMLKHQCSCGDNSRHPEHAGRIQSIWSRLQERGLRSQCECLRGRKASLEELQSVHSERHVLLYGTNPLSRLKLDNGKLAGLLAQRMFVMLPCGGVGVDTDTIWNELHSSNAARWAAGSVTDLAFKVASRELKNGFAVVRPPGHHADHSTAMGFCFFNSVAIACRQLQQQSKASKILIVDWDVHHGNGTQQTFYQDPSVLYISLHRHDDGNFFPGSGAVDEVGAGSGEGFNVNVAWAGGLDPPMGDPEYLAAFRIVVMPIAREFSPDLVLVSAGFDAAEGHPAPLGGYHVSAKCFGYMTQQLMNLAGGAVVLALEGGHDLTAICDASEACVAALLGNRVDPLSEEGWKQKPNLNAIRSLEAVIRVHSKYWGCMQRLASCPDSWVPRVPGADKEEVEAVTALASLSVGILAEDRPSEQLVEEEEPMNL
Procedure: HDAC subtype selectivity inhibition assay of tested compounds was carried out by several reporter gene assays experiments. Briefly, HeLa cells were seeded in 96-well plates the day before transfection to give a confluence of 50-80%. Cells were transfected with one of reporter gene plasmid containing a promoter sequence or response element upstream of a luciferase gene construct using FuGene6 transfection reagent according to the manufacturer's instruction (Roche). The promoters or response elements including p21-promoter, gdf11-promoter, MEF-binding element (MEF2), Nur77-promoter were fused upstream to the luciferase gene reporter construct. For normalizing the transfection efficiency, a GFP expression plasmid was cotransfected. Cells were allowed to express protein for 24 hours followed by addition of individual compounds or the vehicle (DMSO). 24 hours later the cells were harvested, and the luciferase assay and GFP assay were performed using corresponding assay kits according to the manufacturer's instructions (Promega).

HL60 = assay: Tumor cell proliferation (MTS), HL60; format: cell-based; conditions: Homo sapiens, HL-60, HL60, 72 hours
Procedure: (§1) Measurement of in vivo cell proliferation:
(§2) Tumor cells were trypsinized and plated into 96-well plates at 3,000 per well and incubated in complete medium with 10% FBS for 24 hours. Compounds were added over a final concentration range of 100 μmol/L to 100 nmol/L in 0.1% DMSO and incubated for 72 hours in complete medium. The effects on proliferation were determined by addition of MTS reagent (Promega) according to the instruction, incubation for 2 hours at 37° C. in CO2 incubator, and record the absorbance at 490 nm using an ELISA plate reader.

Raji = assay: Tumor cell proliferation (MTS), Raji; format: cell-based; conditions: Homo sapiens, 72 hours
Procedure: as §1, §2

U937 = assay: Tumor cell proliferation (MTS), U937; format: cell-based; conditions: Homo sapiens, U-937, U937, 72 hours
Procedure: as §1, §2

MCF7 = assay: Tumor cell proliferation (MTS), MCF7; format: cell-based; conditions: Homo sapiens, MCF7, 72 hours
Procedure: as §1, §2

HCT-8 = assay: Tumor cell proliferation (MTS), HCT-8; format: cell-based; conditions: Homo sapiens, HCT-8, 72 hours
Procedure: as §1, §2

## Cc1[nH]c(/C=C2\C(=O)Nc3ccc(F)cc32)c(C)c1C(=O)NCCNc1ccc(C(=O)Nc2ccccc2N)cn1 [Example 3, (Z)-N-(2-aminophenyl)-6-(2-(2-((5-fluoro-2-oxoindolin-3-ylidene)methyl)-3,5-dimethyl-1H-pyrrole-4-carboxamido)ethylamino)nicotinamide]
[1]
  GI50: 126 nM
VEGFR2
  IC50: 11 nM
Total HDAC enzyme
  % inhibition of total HDAC enzyme activity at 30 μM: 9.20%
HDAC7
  EC50: 2.9 µM
  HDAC7 (Nur77 reporter assay) % Max Resp of CS055 at 3 μM: 113.5%
HL60
  GI50: 4.15 µM
Raji
  GI50: 3.45 µM
U937
  GI50: > 60 µM
MCF7
  GI50: > 60 µM
HCT-8
  GI50: > 60 µM

## Cc1[nH]c(/C=N/N=C2\C(=O)Nc3ccc(F)cc32)c(C)c1C(=O)NCCNc1ccc(C(=O)Nc2ccccc2N)cn1 [Example 4, N-(2-aminophenyl)-6-(2-(2-(((5-fluoro-2-oxoindolin-3-ylidene)hydrazono)-methyl)-3,5-dimethyl-1H-pyrrole-4-carboxamido)ethylamino)nicotinamide]
[1]
  GI50: > 1000 nM
VEGFR2
  IC50: 12 nM
Total HDAC enzyme
  % inhibition of total HDAC enzyme activity at 30 μM: 6.90%
HDAC7
  HDAC7 (Nur77 reporter assay) % Max Resp of CS055 at 3 μM: 3.9%
HL60
  GI50: > 60 µM
Raji
  GI50: > 60 µM
U937
  GI50: > 60 µM
MCF7
  GI50: > 60 µM
HCT-8
  GI50: > 60 µM

## Cc1[nH]c(/C=C2\C(=O)Nc3ccc(F)cc32)c(C)c1C(=O)NCCCNc1ccc(C(=O)Nc2ccccc2N)cn1 [Example 6, (Z)-N-(2-aminophenyl)-6-(3-(2-((5-fluoro-2-oxoindolin-3-ylidene)methyl)-3,5-dimethyl-1H-pyrrole-4-carboxamido)propylamino)nicotinamide]
[1]
  GI50: 46 nM
VEGFR2
  IC50: 45 nM
Total HDAC enzyme
  % inhibition of total HDAC enzyme activity at 30 μM: 12.50%
HDAC7
  EC50: 2.5 µM
  HDAC7 (Nur77 reporter assay) % Max Resp of CS055 at 3 μM: 88.1%
HL60
  GI50: > 60 µM
Raji
  GI50: 3.45 µM
U937
  GI50: > 60 µM
MCF7
  GI50: > 60 µM
HCT-8
  GI50: > 60 µM

## Cc1[nH]c(/C=N/N=C2\C(=O)Nc3ccc(F)cc32)c(C)c1C(=O)NCCCNc1ccc(C(=O)Nc2ccccc2N)cn1 [Example 7, N-(2-aminophenyl)-6-(3-(2-(((5-fluoro-2-oxoindolin-3-ylidene)hydrazono)-methyl)-3,5-dimethyl-1H-pyrrole-4-carboxamido)propylamino)nicotinamide]
[1]
  GI50: > 1000 nM
VEGFR2
  IC50: 634 nM
Total HDAC enzyme
  % inhibition of total HDAC enzyme activity at 30 μM: 7.80%
HDAC7
  HDAC7 (Nur77 reporter assay) % Max Resp of CS055 at 3 μM: 12.4%
HL60
  GI50: 7.91 µM
Raji
  GI50: > 60 µM
U937
  GI50: > 60 µM
MCF7
  GI50: > 60 µM
HCT-8
  GI50: > 60 µM

## Cc1[nH]c(/C=C2\C(=O)Nc3ccc(F)cc32)c(C)c1C(=O)NCCCCNc1ccc(C(=O)Nc2ccccc2N)cn1 [Example 9, (Z)-N-(2-aminophenyl)-6-(4-(2-((5-fluoro-2-oxoindolin-3-ylidene)methyl)-3,5-dimethyl-1H-pyrrole-4-carboxamido)butylamino)nicotinamide]
[1]
  GI50: 32 nM
VEGFR2
  IC50: 35 nM
Total HDAC enzyme
  % inhibition of total HDAC enzyme activity at 30 μM: 6.30%
HDAC7
  EC50: 13.2 µM
  HDAC7 (Nur77 reporter assay) % Max Resp of CS055 at 3 μM: 88.7%
HL60
  GI50: 1.27 µM
Raji
  GI50: > 60 µM
U937
  GI50: > 60 µM
MCF7
  GI50: > 60 µM
HCT-8
  GI50: > 60 µM

## Cc1[nH]c(/C=N/N=C2\C(=O)Nc3ccc(F)cc32)c(C)c1C(=O)NCCCCNc1ccc(C(=O)Nc2ccccc2N)cn1 [Example 10, N-(2-aminophenyl)-6-(4-(2-(((5-fluoro-2-oxoindolin-3-ylidene)hydrazono)-methyl)-3,5-dimethyl-1H-pyrrole-4-carboxamido)butylamino)nicotinamide]
[1]
  GI50: > 1000 nM
VEGFR2
  IC50: > 1000 nM
Total HDAC enzyme
  % inhibition of total HDAC enzyme activity at 30 μM: 6.10%
HDAC7
  HDAC7 (Nur77 reporter assay) % Max Resp of CS055 at 3 μM: 13.2%
HL60
  GI50: 6.28 µM
Raji
  GI50: > 60 µM
U937
  GI50: > 60 µM
MCF7
  GI50: > 60 µM
HCT-8
  GI50: > 60 µM

## Cc1[nH]c(/C=C2\C(=O)Nc3ccc(F)cc32)c(C)c1C(=O)NCCNc1ccc(C(=O)Nc2ccc(F)cc2N)cn1 [Example 13, (Z)-N-(2-amino-4-fluorophenyl)-6-(2-(2-((5-fluoro-2-oxoindolin-3-ylidene)-methyl)-3,5-dimethyl-1H-pyrrole-4-carboxamido)ethylamino)nicotinamide]
[1]
  GI50: 151 nM
VEGFR2
  IC50: 43 nM
Total HDAC enzyme
  % inhibition of total HDAC enzyme activity at 30 μM: −2.60%
HDAC7
  HDAC7 (Nur77 reporter assay) % Max Resp of CS055 at 3 μM: 6.4%
HL60
  GI50: > 60 µM
Raji
  GI50: > 60 µM
U937
  GI50: > 60 µM
MCF7
  GI50: > 60 µM
HCT-8
  GI50: > 60 µM

## Cc1[nH]c(/C=N/N=C2\C(=O)Nc3ccc(F)cc32)c(C)c1C(=O)NCCNc1ccc(C(=O)Nc2ccc(F)cc2N)cn1 [Example 14, N-(2-amino-4-fluorophenyl)-6-(2-(2-(((5-fluoro-2-oxoindolin-3-ylidene)-hydrazono)methyl)-3,5-dimethyl-1H-pyrrole-4-carboxamido)ethylamino)nicotinamide]
[1]
  GI50: > 1000 nM
VEGFR2
  IC50: 324 nM
Total HDAC enzyme
  % inhibition of total HDAC enzyme activity at 30 μM: 1.00%
HDAC7
  HDAC7 (Nur77 reporter assay) % Max Resp of CS055 at 3 μM: 4.5%
HL60
  GI50: > 60 µM
Raji
  GI50: > 60 µM
U937
  GI50: > 60 µM
MCF7
  GI50: > 60 µM
HCT-8
  GI50: > 60 µM

## Cc1[nH]c(/C=C2\C(=O)Nc3ccc(F)cc32)c(C)c1C(=O)NCCCNc1ccc(C(=O)Nc2ccc(F)cc2N)cn1 [Example 16, (Z)-N-(2-amino-4-fluorophenyl)-6-(3-(2-((5-fluoro-2-oxoindolin-3-ylidene)-methyl)-3,5-dimethyl-1H-pyrrole-4-carboxamido)propylamino)nicotinamide]
[1]
  GI50: 105 nM
VEGFR2
  IC50: 72 nM
Total HDAC enzyme
  % inhibition of total HDAC enzyme activity at 30 μM: 6.70%
HDAC7
  HDAC7 (Nur77 reporter assay) % Max Resp of CS055 at 3 μM: 6.5%
HL60
  GI50: > 60 µM
Raji
  GI50: > 60 µM
U937
  GI50: > 60 µM
MCF7
  GI50: > 60 µM
HCT-8
  GI50: > 60 µM
